Tests used:
yeast, mould = assay: Yeast & Mould Count of treated whole red chilli; conditions: whole red chilli 12 kg's
Experimental: (§1) This experiment illustrates the treatment of aerobic micro-organisms, yeast, mould, coliform, E. coli, Salmonella and fat soluble metabolites contaminated whole red chilli.
(§2) The data presented in Table-2 illustrate the efficacy of the present disclosure in detoxifying contaminated whole red chillies. […].
(§3) The red chillies were exposed with Trioxygen for 2 minutes. The products were put under pressure of trioxygen gas for a span of 9 minutes to 26 minutes. Based on the commodity characteristics, the exposure of trioxygen gas was repeated 10 times. Trioxygen gas having a capacity 500 g/h was generated by the trioxygen generator (on site) of the system with a constant oxygen flow rate and delivered to the decontamination chamber through silicon tube. The whole red chillies were then treated to heated air.

coliform = assay: Coliform Count of treated whole red chilli; conditions: whole red chilli 12 kg's
Experimental: as §1, §2, §3

E. coli = assay: Detection of E. coli in treated whole red chilli; conditions: whole red chilli 12 kg's, Trial 3
Experimental: as §1, §2, §3

[1] = C17H12O6 content of treated groundnuts; conditions: groundnut
Experimental: The data presented in Table-3 illustrates the efficiency of the system of the present disclosure in detoxifying contaminated groundnuts.
Three sets of C17H12O6 contaminated 3 kg's, 60 kg's and 60 kg's of groundnuts were separately pre-conditioned and decontaminated in the system. In this case, groundnuts were pre-conditioned and exposed with trioxygen gas for up to 5 minutes. The products were put under pressure of trioxygen gas for a span of 9 minutes to 26 minutes. Based on the commodity characteristics, the exposure of trioxygen gas was repeated 15 times. Trioxygen gas having capacity 500 g/h was generated by the trioxygen generator of the system (on site) with a constant oxygen flow rate and delivered to the decontamination chamber through silicon tube. All 3 sets of products were heated and then analyzed for the presence of the contaminant and the results obtained are summarized in Table-3.

[2] = C17H12O6 content of treated corn
Experimental: The data presented in Table-4 illustrates the efficiency of the system of the present disclosure in detoxifying pre-conditioned contaminated corn.
Three sets of C17H12O6 contaminated 70 kg's of corn were separately decontaminated in the system of the present disclosure. In this case, corn samples were pre-conditioned with a pre-conditioning liquid and exposed to trioxygen gas for up to 5 minutes. The products were put under pressure of trioxygen gas for a span of 9 minutes to 26 minutes. Based on the commodity characteristics, the exposure of trioxygen gas was repeated 20 times. Trioxygen gas having capacity 500 g/h was generated by the trioxygen generator of the system (on site) with a constant oxygen flow rate and delivered to the decontamination chamber through silicon tube. All 3 sets of products were air dried and then analyzed for the presence of the contaminant and the results obtained are summarized in Table-4

weevils and weevil eggs = assay: Shelf-Life Assessment of Groundnut; design: key to Visual observation: Powder at the bottom of bag / Weevils/Insects / Visual observation: Pin holes on grain: ✓ Not observed; x Observed; conditions: for Visual observation: Pin holes on grain / Visual observation: Powder at the bottom of bag / Weevils/Insects: Treated sample
Experimental: The data presented in Table-5 illustrates the efficiency of the system of the present disclosure in pre-conditioning and deactivation of weevils and weevil eggs results in delayed occurrence of insect infestation in grains.
Grains such as Dry corn, Groundnut, Rice & Wheat were separately pre-conditioned and decontaminated in the system of the present disclosure. Grains were exposed to trioxygen gas for up to 5 minutes. The products were put under pressure of trioxygen gas for a span of 9 minutes to 26 minutes. Trioxygen gas having capacity 500 g/h was generated by the trioxygen generator of the system (on site) with a constant oxygen flow rate and delivered to the decontamination chamber through silicon tube. All products were treated with hot air and then analyzed for the presence of the weevils and weevil eggs the results obtained are summarized in Table-5.

[3] = Pesticide residue in treated whole red chilli: Azoxystrobin; conditions: whole red chilli 12 kg's, Trial 1; HOCL and Trioxygen simultaneously
Text: (§4) This experiment illustrates the treatment of whole red chilli contaminated with pesticide residues.
(§5) The data presented in Table-6 illustrates the efficacy of the present disclosure in detoxifying contaminated whole red chillies. Sets of whole red chillies of 12 kg's contaminated with pesticides like Azoxystrobin, Imidacloprid Novaluron and Myclobutanil were used for the experiment. An inert gas (Nitrogen & Carbon-di-oxide) were introduced into the chamber filled with the material to drive out existing air and oxygen in the chamber. Pre-conditioning was carried out with HOCL and trioxygen being introduced simultaneously in decontamination chamber with faster decontamination process in the system with a shorter timeline protocol.
(§6) The red chillies were exposed with HOCL and Trioxygen simultaneously for 2 minutes. The products were put under pressure of 2 bar of trioxygen gas for a span of 9 minutes to 26 minutes. Based on the commodity characteristics, the exposure of trioxygen gas was repeated 10 times. Trioxygen gas having a capacity 500 g/h was generated by the trioxygen generator (on site) of the system with a constant oxygen flow rate and delivered to the decontamination chamber through silicon tube. The whole red chillies were then treated to heated air.

[4] = Pesticide residue in treated whole red chilli: Novaluron; conditions: whole red chilli 12 kg's, Trial 1; HOCL and Trioxygen simultaneously
Text: as §4, §5, §6

O=[O+][O-] [Trioxygen]
Yeast & Mould Count, % Reduction (yeast, mould; Trial 1): 73% | Yeast & Mould Count, Results After Treatment (yeast, mould; Trial 1, before treatment 1.57 × 10^7 cfu/g): 4.18 × 10^6 cfu/g | Yeast & Mold Count, % Reduction (yeast, mould; Trial 2): 83% | Yeast & Mold Count, Results After Treatment (yeast, mould; Trial 2, before treatment 1.7 × 10^7 cfu/g): 2.9 × 10^6 cfu/g | Yeast & Mold Count, % Reduction (yeast, mould; Trial 3): 99% | Yeast & Mold Count, Results After Treatment (yeast, mould; Trial 3, before treatment 3.36 × 10^7 cfu/g): 1.87 × 10^5 cfu/g | Coliform Count, % Reduction (coliform; Trial 1): 93% | Coliform Count, Results After Treatment (coliform; Trial 1, before treatment 2.7 × 10^4 cfu/g): 1.82 × 10^3 cfu/g | Coliform Count, % Reduction (coliform; Trial 3): 100% | Coliform Count, Results After Treatment (coliform; Trial 3, before treatment 5.45 × 10^3 cfu/g): <10 cfu/g | Detection of E. coli, % Reduction (E. coli): 100% | Detection of E. coli, Results After Treatment (E. coli; before treatment Present/25 g): Absent/25 g | C17H12O6, % Reduction ([1]; Sr. No. 1, 3 kg's): 100% | C17H12O6, % Reduction ([1]; Sr. No. 2, 60 kg's): 93% | C17H12O6, % Reduction ([1]; Sr. No. 3, 60 kg's): 64% | C17H12O6, % Reduction ([2]; Sr. No. 1, 70 kg's): 100% | C17H12O6, % Reduction ([2]; Sr. No. 2, 70 kg's): 85% | C17H12O6, % Reduction ([2]; Sr. No. 3, 70 kg's): 100% | No weevil infestation in system treated samples up to (weevils and weevil eggs): up to 6 months | Treatment effective in delaying infestation up to (weevils and weevil eggs): up to 6 months | Remarks on Weevils/Insects, Treated (weevils and weevil eggs; Post 1.5 Months): No weevils/insects | Remarks on Weevils/Insects, Treated (weevils and weevil eggs; Post 2 Months): No weevils/insects | Remarks on Weevils/Insects, Treated (weevils and weevil eggs; Post 3 Months): No weevils/insects | Remarks on Weevils/Insects, Treated (weevils and weevil eggs; Post 5 Months): No weevils/insects | Remarks on Weevils/Insects, Treated (weevils and weevil eggs; Post 6 Months): No weevils/insects | Remarks on Weevils/Insects, Treated: insect observed alive, buff/cream, 5 mm long (weevils and weevil eggs; Post 7 Months): 1 insect observed - | Visual observation: Pin holes on grain (weevils and weevil eggs; 1.5 Months): ✓ | Visual observation: Powder at the bottom of bag (weevils and weevil eggs; 1.5 Months): ✓ | Weevils/Insects (weevils and weevil eggs; 1.5 Months): ✓ | Visual observation: Pin holes on grain (weevils and weevil eggs; 2 Months): ✓ | Visual observation: Powder at the bottom of bag (weevils and weevil eggs; 2 Months): ✓ | Weevils/Insects (weevils and weevil eggs; 2 Months): ✓ | Visual observation: Pin holes on grain (weevils and weevil eggs; 3 Months): ✓ | Visual observation: Powder at the bottom of bag (weevils and weevil eggs; 3 Months): ✓ | Weevils/Insects (weevils and weevil eggs; 3 Months): ✓ | Visual observation: Pin holes on grain (weevils and weevil eggs; 5 Months): ✓ | Visual observation: Powder at the bottom of bag (weevils and weevil eggs; 5 Months): ✓ | Weevils/Insects (weevils and weevil eggs; 5 Months): ✓ | Visual observation: Pin holes on grain (weevils and weevil eggs; 6 Months): ✓ | Visual observation: Powder at the bottom of bag (weevils and weevil eggs; 6 Months): ✓ | Weevils/Insects (weevils and weevil eggs; 6 Months): ✓ | Visual observation: Pin holes on grain (weevils and weevil eggs; 7 Months): ✓ | Visual observation: Powder at the bottom of bag (weevils and weevil eggs; 7 Months): ✓ | Weevils/Insects (weevils and weevil eggs; 7 Months): x | Number of weevils in treated sample, times less than that in control sample (weevils and weevil eggs; at month 7): 3 times | Azoxystrobin, % Reduction [3]: 62% | Novaluron, % Reduction [4]: 100%

Reference: patent publication US20250107543A1, “TREATMENT OF AGRICULTURAL, FOOD AND RELATED PRODUCTS FOR ELIMINATING CONTAMINANTS AND ENCHANCING SHELF-LIFE” (priority 2022, published 2025)
